Patent publication US20090163698A1, “Method for Preparing Antibody Conjugates” (priority 2007, published 2009)

Experiments:
murine αVβ3/5 integrin = settings: cited from earlier work
A375.S2 cells = test: Binding and internalization study at 37° C., confocal microscopy; format: cell-based, human; settings: 37° C. for 10 min, washed, incubated 1 hour at 37° C.
Description: A375.S2 cells were harvested by scraping and then resuspended to obtain individualized cells and rejuvenated for 1 hour, at 37° C. About 1 million cells of each tumor type were counted and distributed into individual centrifugation tubes. The tubes were spun to obtain a cell pellet.
For binding and internalization, the cells were treated with the targeted liposome formulation at 37° C. for 10 min with mild shaking (140 rpm). Cells were treated with the liposome formulations containing either a doxorubicin payload or a fluorescent marker (Dextran Alexa Fluor 488). Treatment was terminated by adding 1 mL of washing media (serum free), vortexing briefly, and centrifuging to recover a cell pellet The cells in the pellet were resuspend in washing media, vigorously shaken for 10 minutes at 37° C. and then centrifuged again (440 rpm). The cell pellet was left in 100 μL of media, an aliquot of 8 μL was taken and placed on a glass slide for observation under a confocal microscope.
Binding and internalization of the targeted liposomes to A375.S2 cells was evaluated after various incubation times of the cells and the liposome formulation.

murine αVβ3/5 integrin, sequence (P43406 31-885 limits assumed): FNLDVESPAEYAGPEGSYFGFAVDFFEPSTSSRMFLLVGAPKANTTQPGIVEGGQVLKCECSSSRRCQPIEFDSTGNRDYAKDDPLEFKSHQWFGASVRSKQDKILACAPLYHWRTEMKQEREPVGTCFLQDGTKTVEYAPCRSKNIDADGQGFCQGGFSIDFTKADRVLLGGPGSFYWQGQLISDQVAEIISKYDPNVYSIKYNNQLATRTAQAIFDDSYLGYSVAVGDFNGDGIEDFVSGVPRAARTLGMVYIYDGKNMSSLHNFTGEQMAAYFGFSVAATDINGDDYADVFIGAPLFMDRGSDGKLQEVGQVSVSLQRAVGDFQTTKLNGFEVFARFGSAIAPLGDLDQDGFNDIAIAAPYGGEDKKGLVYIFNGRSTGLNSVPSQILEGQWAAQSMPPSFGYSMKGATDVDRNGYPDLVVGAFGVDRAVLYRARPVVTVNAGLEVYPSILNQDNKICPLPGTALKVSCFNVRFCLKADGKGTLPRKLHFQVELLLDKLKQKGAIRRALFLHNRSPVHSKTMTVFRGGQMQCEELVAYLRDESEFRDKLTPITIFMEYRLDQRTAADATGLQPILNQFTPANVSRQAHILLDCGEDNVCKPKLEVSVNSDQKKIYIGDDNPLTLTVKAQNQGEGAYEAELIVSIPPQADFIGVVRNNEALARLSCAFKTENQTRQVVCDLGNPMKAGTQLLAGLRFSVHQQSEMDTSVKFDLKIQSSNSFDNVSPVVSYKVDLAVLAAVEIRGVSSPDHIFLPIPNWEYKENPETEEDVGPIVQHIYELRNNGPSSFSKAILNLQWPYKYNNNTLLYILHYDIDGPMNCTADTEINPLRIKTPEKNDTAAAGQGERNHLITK
murine αVβ3/5 integrin, sequence (P43406 887-1044 limits assumed): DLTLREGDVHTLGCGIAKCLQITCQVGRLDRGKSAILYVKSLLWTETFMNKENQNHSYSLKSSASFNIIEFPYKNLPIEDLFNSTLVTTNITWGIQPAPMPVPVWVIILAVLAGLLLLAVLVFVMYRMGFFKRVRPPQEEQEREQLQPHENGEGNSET

Row | Compound | Binding to murine αVβ3/5 integrin (murine αVβ3/5 integrin) | Binding and internalization (confocal microscopy) (A375.S2 cells)
1 | CNTO95: full-length human anti-alpha-V antibody of the IgG1k type, SEQ ID NO: 1 and SEQ ID NO: 2 | does not bind | –
2 | COc1cccc2c1C(=O)c1c(O)c3c(c(O)c1C2=O)C[C@@](O)(C(=O)CO)C[C@@H]3O[C@H]1C[C@H](N)[C@H](O)[C@H](C)O1 [free dox, doxorubicin] | – | drug internalization is evident
